Where two headings read alike, the source gives them in different places. Starred links: 1 amine or outer side, 2 acyl side, 3 side chain; linkers in the order of their positions; H or OH if unused. Positions of bridges follow the written chain, without caps; N, C: chain ends. Non-standard residues stand in square brackets, D forms with d. Residues, ends and D or L forms follow the SMILES beside them. ξ: configuration not given here. *: point of attachment. X18 = CS(=O)(=O)Nc1ccc(C[C@H](N[*:1])C(=O)[*:2])cc1; Phe(3,4,5-F3) = N[C@@H](Cc1cc(F)c(F)c(F)c1)C(=O)O; Phe(4-CH2NH2) = NCc1ccc(C[C@H](N)C(=O)O)cc1; ξPhe(βξ-Me) = CC(c1ccccc1)C(N)C(=O)O; Bta = N[C@@H](Cc1csc2ccccc12)C(=O)O; Cyclobutanecarbonyl = O=C(C1CCC1)*; Hyp = O=C(O)[C@@H]1C[C@@H](O)CN1; NMeF = CN[C@@H](Cc1ccccc1)C(=O)O; 4Pal = N[C@@H](Cc1ccncc1)C(=O)O; NMeE = CN[C@@H](CCC(=O)O)C(=O)O; NMeNle = CCCC[C@H](NC)C(=O)O; NMeS = CN[C@@H](CO)C(=O)O; hSer = N[C@@H](CCO)C(=O)O; NMeA = CN[C@@H](C)C(=O)O; Orn = NCCC[C@H](N)C(=O)O; Dab = NCC[C@H](N)C(=O)O; Dap = NC[C@H](N)C(=O)O; ξC = NC(CS)C(=O)O; Sar = CNCC(=O)O
Columns and labels:
Human PD-L1/PD-1 = biological target: T1, Human PD-L1/PD-1 (Homo sapiens, UniProt Q9NZQ7); test: HTRF PD-1-Ig/PD-L1-His binding assay (human PD-L1); settings: cluster symbol; read-out: HTRF IC50 cluster
T1 construct: made in house; host or cells: HEK293T
In short: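 Interaction of Fc-tagged soluble PD-1 with His-tagged soluble PD-L1 is monitored by time-resolved FRET. Donor is europium cryptate anti-Ig (1 nM final) and acceptor is APC anti-His (20 nM final). Assay buffer is dPBS with 0.1% BSA and 0.05% Tween-20.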

[1] = biological target: T2, LK35.2-hPD-L1 cells / PE-labeled PD-1-Ig (Homo sapiens, UniProt Q9NZQ7); test: LK35.2-hPD-L1 cell binding high-content screening assay; type: cell-based; settings: cluster symbol, read-out: CBA IC50 cluster
T2 construct: expressed in transfected cells; host or cells: LK35.2 mouse B cell line
In short: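 Binding of PE-conjugated human PD-1-Ig (1 nM final) to human PD-L1 stably expressed on a mouse B-cell line (LK35.2) was measured by high-content imaging after washes. Compound and labeled PD-1-Ig were co-incubated 1 h at 37 °C with cells in RPMI/10% FCS.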

[2] = cell binding assay, cell line not given
[3] = cell line of CBA not given (LK35.2-hPD-L1 or 293T-hPD-L1)

T1 sequence (Q9NZQ7 with tags, fused parts or gaps): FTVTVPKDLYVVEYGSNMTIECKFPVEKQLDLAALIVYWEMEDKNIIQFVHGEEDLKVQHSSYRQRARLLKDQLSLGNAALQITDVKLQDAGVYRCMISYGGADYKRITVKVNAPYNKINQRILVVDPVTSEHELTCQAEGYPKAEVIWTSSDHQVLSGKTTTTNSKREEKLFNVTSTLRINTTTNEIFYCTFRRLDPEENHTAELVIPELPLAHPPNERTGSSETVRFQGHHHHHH
T2 sequence (Q9NZQ7 19-290): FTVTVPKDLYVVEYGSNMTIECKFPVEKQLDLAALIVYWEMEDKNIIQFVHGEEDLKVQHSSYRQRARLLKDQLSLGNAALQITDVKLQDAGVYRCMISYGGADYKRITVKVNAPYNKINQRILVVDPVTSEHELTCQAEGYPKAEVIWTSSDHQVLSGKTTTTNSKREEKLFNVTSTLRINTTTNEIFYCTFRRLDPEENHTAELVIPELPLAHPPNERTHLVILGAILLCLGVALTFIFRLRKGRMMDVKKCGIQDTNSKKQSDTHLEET

SMILES | IC50 (Human PD-L1/PD-1) | IC50 [1, 2] | IC50 [1, 3]
CCCCC1C(=O)N[C@@H](CCCNC(=N)N)C(=O)N[C@@H](CC(=O)O)C(=O)N[C@@H](C(C)C)C(=O)N(C)[C@@H](Cc2ccccc2)C(=O)N[C@@H](Cc2ccc(O)cc2)C(=O)N(C)CC(=O)N[C@@H](Cc2c[nH]c3ccccc23)C(=O)N[C@@H](Cc2ccc(O)cc2)C(=O)N[C@@H](CC(C)C)C(=O)N[C@H](C(=O)NCC(N)=O)CSCC(=O)N[C@@H](Cc2ccccc2)C(=O)N(C)[C@@H](Cc2ccccc2)C(=O)N1C (stereo partly shown) [Example 3510] (HELM PEPTIDE1{[O=C(C[*:3])[*:2]].F.[meF].[CCCCC(C(=O)[*:2])N(C)[*:1]].R.D.V.[meF].Y.[Sar].W.Y.L.C.G.[am]}$PEPTIDE1,PEPTIDE1,1:R3-14:R3$$$V2.0) | > 30.5 nM | > 74.3 nM | –
CCCC[C@H]1C(=O)N(C)[C@@H](CCCC)C(=O)N[C@@H](CCCNC(=N)N)C(=O)N[C@H](C(=O)NCC(N)=O)CSCC(=O)N[C@@H](Cc2ccc(O)cc2)C(=O)N(C)[C@@H](CCC(=O)O)C(=O)N[C@@H](CC(N)=O)C(=O)N2CCC[C@H]2C(=O)N[C@@H](Cc2cnc[nH]2)C(=O)N[C@@H](CC(C)C)C(=O)N2CCC[C@H]2C(=O)N[C@@H](Cc2c[nH]c3ccccc23)C(=O)N[C@@H](CO)C(=O)N[C@@H](Cc2csc3ccccc23)C(=O)N1C [Example 1191] ({CH2CO}-Y[NMeE]NPHLPWS[Bta][NMeNle][NMeNle]RCG-NH2; thioether N-14) | > 30.5 nM | – | > 74.3 nM
CCCC[C@H]1C(=O)N(C)CC(=O)N[C@@H](CC(=O)O)C(=O)N[C@@H](C(C)C)C(=O)N(C)[C@@H](Cc2ccccc2)C(=O)N[C@@H](Cc2ccc(O)cc2)C(=O)N(C)CC(=O)N[C@@H](Cc2c[nH]c3ccccc23)C(=O)N[C@@H](Cc2ccc(O)cc2)C(=O)N[C@@H](CCCCN)C(=O)N[C@H](C(=O)NCC(N)=O)CSCC(=O)N[C@@H](Cc2ccccc2)C(=O)N(C)[C@@H](Cc2ccccc2)C(=O)N1C [Example 3164] (HELM PEPTIDE1{[O=C(C[*:3])[*:2]].F.[meF].[CCCC[C@@H](C(=O)[*:2])N(C)[*:1]].[Sar].D.V.[meF].Y.[Sar].W.Y.K.C.G.[am]}$PEPTIDE1,PEPTIDE1,1:R3-14:R3$$$V2.0) | 6.76 to 30.3 nM | – | 4.78 to 72.9 nM
CCCC[C@H]1C(=O)N(C)[C@@H](CO)C(=O)N[C@@H](CCCNC(=N)N)C(=O)NC(C(=O)NCC(N)=O)CSCC(=O)N[C@@H](Cc2ccc(O)cc2)C(=O)N(C)[C@@H](C)C(=O)N[C@@H](CC(N)=O)C(=O)N2CCC[C@H]2C(=O)N[C@@H](Cc2cnc[nH]2)C(=O)N[C@@H](CC(C)C)C(=O)N2CCC[C@H]2C(=O)N[C@@H](Cc2c[nH]c3ccccc23)C(=O)N[C@@H](CO)C(=O)N[C@@H](Cc2csc3ccccc23)C(=O)N1C (stereo partly shown) [Example 9044] ({CH2CO}-Y[NMeA]NPHLPWS[Bta][NMeNle][NMeS]R[ξC]G-NH2; thioether N-14) | 0.385 to 6.74 nM | 0.158 to 4.71 nM | –
CC(C)C[C@@H]1NC(=O)[C@H](Cc2cnc[nH]2)NC(=O)[C@@H]2CCCN2C(=O)[C@H](CC(N)=O)NC(=O)[C@H](C)N(C)C(=O)[C@H](Cc2ccccc2)NC(=O)CSC[C@@H](C(=O)NCC(N)=O)NC(=O)[C@H](CCCNC(=N)N)NC(=O)[C@H](C)N(C)C(=O)[C@H](CCNC(=O)C2CCC2)NC(=O)[C@H](Cc2c[nH]c3ccccc23)NC(=O)[C@H](CO)NC(=O)[C@H](Cc2c[nH]c3ccccc23)NC(=O)CN(C)C1=O [Example 1034] ({CH2CO}-F[NMeA]NPHL[Sar]WSW[Dab](Cyclobutanecarbonyl)[NMeA]RCG-NH2; thioether N-14) | > 30.5 nM | – | > 74.3 nM
CCCC[C@H]1C(=O)N(C)[C@@H](CCCC)C(=O)N[C@@H](CCCNC(=N)N)C(=O)N[C@H](C(=O)NCC(N)=O)CSCC(=O)N[C@@H](Cc2ccc(O)cc2)C(=O)N(C)[C@@H](C)C(=O)N[C@@H](CC(N)=O)C(=O)N2CCC[C@H]2C(=O)N[C@@H](Cc2ccncc2)C(=O)N[C@@H](CC(C)C)C(=O)N2C[C@H](O)C[C@H]2C(=O)N[C@@H](Cc2c[nH]c3ccccc23)C(=O)N[C@@H](CO)C(=O)N[C@@H](Cc2c[nH]c3ccccc23)C(=O)N1C [Example 7028] ({CH2CO}-Y[NMeA]NP[4Pal]L[Hyp]WSW[NMeNle][NMeNle]RCG-NH2; thioether N-14) | 6.76 to 30.3 nM | 0.158 to 4.71 nM | –
CCCC[C@H]1C(=O)N(C)[C@@H](CCCC)C(=O)N[C@@H](CCCNC(=N)N)C(=O)N[C@H](C(=O)NCC(N)=O)CSCC(=O)N[C@@H](Cc2ccc(NS(C)(=O)=O)cc2)C(=O)N(C)[C@@H](C)C(=O)N[C@@H](CC(N)=O)C(=O)N2CCC[C@H]2C(=O)N[C@@H](Cc2cnc[nH]2)C(=O)N[C@@H](CC(C)C)C(=O)N(C)CC(=O)N[C@@H](Cc2c[nH]c3ccccc23)C(=O)N[C@@H](CO)C(=O)N[C@@H](Cc2c[nH]c3ccccc23)C(=O)N1C [Example 1100] ({CH2CO}-[X18][NMeA]NPHL[Sar]WSW[NMeNle][NMeNle]RCG-NH2; thioether N-14) | > 30.5 nM | – | > 74.3 nM
CCCC[C@H]1C(=O)N(C)[C@@H](COc2cccc(C)c2)C(=O)N[C@@H](CCN)C(=O)N[C@H](C(=O)NCC(N)=O)CSCC(=O)N[C@@H](Cc2ccc(O)cc2)C(=O)N(C)[C@@H](C)C(=O)N[C@@H](CC(N)=O)C(=O)N2CCC[C@H]2C(=O)N[C@@H](CN)C(=O)N[C@@H](CCC(=O)O)C(=O)N2C[C@H](O)C[C@H]2C(=O)N[C@@H](Cc2c[nH]c3ccccc23)C(=O)N[C@@H](CO)C(=O)N[C@@H](Cc2c[nH]c3ccccc23)C(=O)N1C [Example 6030] | 0.385 to 6.74 nM | 4.78 to 72.9 nM | –
CCCC[C@H]1C(=O)N(C)CC(=O)N[C@@H](CC(=O)O)C(=O)N[C@@H](C(C)C)C(=O)N(C)[C@@H](Cc2ccccc2)C(=O)N[C@@H](Cc2ccc(O)cc2)C(=O)N(C)CC(=O)N[C@@H](Cc2c[nH]c3ccccc23)C(=O)N[C@@H](Cc2ccc(O)cc2)C(=O)N[C@@H](CC(C)C)C(=O)N[C@H](C(=O)NCC(N)=O)CSCC(=O)NC(C(C)c2ccccc2)C(=O)N(C)[C@@H](Cc2ccccc2)C(=O)N1C (stereo partly drawn) [Example 3516] ({CH2CO}-[ξPhe(βξ-Me)][NMeF][NMeNle][Sar]DV[NMeF]Y[Sar]WYLCG-NH2; thioether N-13) | > 30.5 nM | > 74.3 nM | –
CCCC[C@H]1C(=O)N(C)CC(=O)N[C@@H](CC(=O)O)C(=O)N[C@@H](C(C)C)C(=O)N(C)[C@@H](Cc2ccccc2)C(=O)N[C@@H](Cc2ccc(O)cc2)C(=O)N(C)CC(=O)N[C@@H](Cc2c[nH]c3ccccc23)C(=O)N[C@@H](Cc2ccc(O)cc2)C(=O)N[C@@H](Cc2c[nH]cn2)C(=O)N[C@H](C(=O)NCC(N)=O)CSCC(=O)N[C@@H](Cc2ccccc2)C(=O)N(C)[C@@H](Cc2ccccc2)C(=O)N1C [Example 3165] (HELM PEPTIDE1{[O=C(C[*:3])[*:2]].F.[meF].[CCCC[C@@H](C(=O)[*:2])N(C)[*:1]].[Sar].D.V.[meF].Y.[Sar].W.Y.H.C.G.[am]}$PEPTIDE1,PEPTIDE1,1:R3-14:R3$$$V2.0) | 6.76 to 30.3 nM | – | 4.78 to 72.9 nM
CCCC[C@H]1C(=O)N2CCC[C@@H]2C(=O)N[C@@H](CO)C(=O)N[C@@H](C(C)C)C(=O)N(C)[C@@H](Cc2ccccc2)C(=O)N[C@@H](Cc2ccc(CN)cc2)C(=O)N2CCC[C@@H]2C(=O)N[C@@H](Cc2c[nH]c3ccccc23)C(=O)N[C@@H](Cc2ccc(O)cc2)C(=O)N[C@@H](CCCCN)C(=O)N[C@H](C(=O)NCC(N)=O)CSCC(=O)N[C@@H](Cc2cc(F)c(F)c(F)c2)C(=O)N(C)[C@@H](Cc2ccccc2)C(=O)N1C [Example 3199] ({CH2CO}-[Phe(3,4,5-F3)][NMeF][NMeNle][dP]SV[NMeF][Phe(4-CH2NH2)][dP]WYKCG-NH2; thioether N-13) | 6.76 to 30.3 nM | – | 0.158 to 4.71 nM
CCCC[C@H]1C(=O)N(C)CC(=O)N[C@@H](CC(=O)O)C(=O)N[C@@H](C(C)C)C(=O)N(C)[C@@H](Cc2ccccc2)C(=O)N[C@@H](Cc2ccc(O)cc2)C(=O)N(C)CC(=O)N[C@@H](Cc2c[nH]c3ccccc23)C(=O)N[C@@H](Cc2ccc(O)cc2)C(=O)N[C@@H](CC(C)C)C(=O)N[C@H](C(=O)NCC(N)=O)CSCC(=O)N[C@@H](Cc2cnc[nH]2)C(=O)N(C)[C@@H](Cc2ccccc2)C(=O)N1C [Example 3091] (HELM PEPTIDE1{[O=C(C[*:3])[*:2]].H.[meF].[CCCC[C@@H](C(=O)[*:2])N(C)[*:1]].[Sar].D.V.[meF].Y.[Sar].W.Y.L.C.G.[am]}$PEPTIDE1,PEPTIDE1,1:R3-14:R3$$$V2.0) | > 30.5 nM | – | > 74.3 nM
CCCC[C@H]1C(=O)N(C)[C@@H](CCCC)C(=O)N[C@@H](CCCNC(=N)N)C(=O)NC(C(=O)NCC(N)=O)CSCC(=O)N[C@@H](Cc2ccc(O)cc2)C(=O)N(C)[C@@H](C)C(=O)N[C@@H](CC(N)=O)C(=O)N2CCC[C@H]2C(=O)N[C@@H](Cc2cnc[nH]2)C(=O)N[C@@H](CC(C)C)C(=O)N2CCC[C@H]2C(=O)N[C@@H](Cc2c[nH]c3ccccc23)C(=O)N[C@@H](CCO)C(=O)N[C@@H](Cc2c[nH]c3ccccc23)C(=O)N1C (stereo partly shown) [Example 9047] ({CH2CO}-Y[NMeA]NPHLPW[hSer]W[NMeNle][NMeNle]R[ξC]G-NH2; thioether N-14) | 0.385 to 6.74 nM | 0.158 to 4.71 nM | –
CCCC[C@H]1C(=O)N(C)[C@@H](CCCC)C(=O)N[C@@H](CCCN)C(=O)N[C@H](C(=O)NCC(N)=O)CSCC(=O)N[C@@H](Cc2ccc(O)cc2)C(=O)N2CCC[C@H]2C(=O)N[C@@H](CC(=O)O)C(=O)N2CCC[C@H]2C(=O)N[C@@H](CN)C(=O)N[C@@H](CCC(N)=O)C(=O)N2C[C@H](O)C[C@H]2C(=O)N[C@@H](Cc2c[nH]c3ccccc23)C(=O)N[C@@H](CCN)C(=O)N[C@@H](Cc2csc3ccccc23)C(=O)N1C [Example 1187] ({CH2CO}-YPDP[Dap]Q[Hyp]W[Dab][Bta][NMeNle][NMeNle][Orn]CG-NH2; thioether N-14) | 6.76 to 30.3 nM | – | 4.78 to 72.9 nM

Source: patent US9850283B2, “Macrocyclic inhibitors of the PD-1/PD-L1 and CD80(B7-1)/PD-L1 protein/protein interactions” (BRISTOL-MYERS SQUIBB COMPANY, priority 2013, dated 2017)
